Reference: US4105766A, “4,5-Dihydro-5-oxopyrazolo[1,5-a]quinazoline-3-carboxylic acid derivatives” (Sterling Drug Inc., priority 1977, dated 1978)

Tests used:
[1] = test system: Trypanosoma brucei; experiment: trypanosomicidal test in infected mice; format: in vivo, Trypanosoma brucei (in mice)
Experimental: Trypanosomicidal activity of the compounds of the invention was determined in a test procedure in which albino female mice (Taconic Farms) weighing 20± 2 g. were intraperitoneally injected 3 days prior to initial medication with 0.2 ml. of an inoculum containing 500 Trypanosoma brucei organisms in 0.85% sterile saline. Blood for infecting purposes was obtained via cardiac puncture of a donor mouse previously determined to have a high parasitemia. Test medications to groups of five mice were started 3 days after infection at a time when the animals had begun to develop a rising blood parasitemia. […] Groups of 10 non-medicated infected control mice and five animals medicated with the reference compound LAMPIT® (tetrahydro-3-methyl-4-[(5-nitrofurfurylidene)amino]-2H-1,4-thiazine-1,1-dioxide) were included in each screening test. The test system is based on the survival of animals medicated with the test compound, and those mice alive at the end of 28 days post-infection were recorded as cured. (Non-medicated infected control mice rarely succumb later than 5 to 6 days post-innoculation with T. brucei). A compound was considered active if at least two of five animals survived until the termination of a 28 day post-infection holding period.
(§1) Results obtained in amoebacidal and trypanosomicidal tests on the compounds of the invention against E. criceti and T. brucei, respectively, are given in the table below. Results are expressed as a ratio: Number of Animals Cleared/Total Test Animals.

[2] = test system: passive cutaneous anaphylaxis; experiment: passive cutaneous anaphylaxis test in rats (anti-allergy); format: in vivo; conditions: for inhibition in vivo at 100 mg/kg / ED50: Rattus norvegicus, po; for inhibition in vivo at 100 mg/kg / % Inhibition (passive cutaneous anaphylaxis) / ED50: rats; for inhibition in vivo at 100 mg/kg / % Inhibition (passive cutaneous anaphylaxis): standard dose of 100 mg./kg. (p.o.); for ED50: passive cutaneous anaphylaxis, read-out: Average Effective Dose50 (AED50)
Excerpt: (1) The inhibition of carrageenin-induced foot edema test essentially described by Winter et al., Proc. Soc. Exp. Biol. and Med. 111, 544 (1962) as modified by Van Arman et al., J. Pharmacol. Exptl. Therap. 150, 328 (1965) and (2) a modification of the inhibition of adjuvant-induced arthritis test described by Pierson, J. Chronic Diseases 16, 863 (1963) and Glenn et al., Am. J. Vet. Res. 26, 1180 (1965), which were used to establish the anti-inflammatory activities of the compounds; and the passive cutaneous anaphylaxis test described by Mielens et al., Int. Arch. Allergy Appl. Immunol. 47, 633-649 (1974) which was used to establish the anti-allergy activity of the compounds.
Results are expressed either in terms of % Inhibition at a standard dose of 100 mg./kg. (p.o.), as an Average Effective Dose50 (AED50), or as a ratio, R, where: [formula]

[3] = test system: Entamoeba criceti; experiment: amoebacidal test in naturally infected hamsters; format: in vivo, Entamoeba criceti (in hamsters)
Experimental: Anti-parasitic activity of the compounds was shown by the following test procedures. Amoebacidal activity was shown in a test in which 100 or more female hamsters (Sprague-Dawley) weighing between 90 and 130 g. were individually weighed and sorted into groups of five animals each averaging either 100 ± 10 g. or 120 ± 10g. The test compounds (at least 200 mg.) and a reference standard, N,N'-(phenylenedimethylene)-bis[α,α-dichloro-N-(2-ethoxyethyl)acetamide] (FALMONOX®), were dissolved or suspended in 10 percent gelatin. The test compounds and the reference standard were administered to the naturally infected hamsters intragastrically via syringe in equally subdivided doses of 0.5 ml. […] On the fourth day each of the test animals and the five hamsters receiving the reference drug, as well as non-medicated infected control animals, were killed and a portion of the mucus from the wall of the cecum was mixed in a drop of 0.85% sodium chloride. The preparation was examined under low power (100 ×) of a compound microscope for the presence of motile trophozoites of Entamoeba criceti, and when a preparation was determined to be free from trophozoites, a second specimen was taken from another part of the cecum of the same animal and thoroughly examined before the animal was declared cleared of amoebas. […] Results were recorded as a fraction: number of hamsters cleared/number of hamsters treated.
as §1

[4] = test system: adjuvant-induced arthritis; experiment: adjuvant arthritis test (AA), inhibition of adjuvant-induced arthritis in rats; format: in vivo; conditions: Rattus norvegicus; for inhibition in vivo at 80 µmol/kg: dose .08 mmole/kg.; for inhibition in vivo at 324 µmol/kg: dose .324 mmole/kg.
[5] = test system: carrageenin-induced foot edema; experiment: carrageenin-edema test (CE), inhibition of carrageenin-induced foot edema in rats; format: in vivo; conditions: Rattus norvegicus, read-out: % Inhibition C.E.; for inhibition in vivo at 324 µmol/kg: dose .324 mmole/kg.
Experimental: (1) The inhibition of carrageenin-induced foot edema test essentially described by Winter et al., Proc. Soc. […] Therap. […] J. Vet. […] Arch. Allergy Appl. Immunol.
Here, and elsewhere in other tables which follow, compounds are identified by the Example number above where their preparations are recorded. For purposes of comparison, data are also given for the reference compound 4,5-dihydro-5-oxopyrazolo[1,5-a]quinazoline-3-carboxylic acid disclosed by Wright, ibid., identified here and elsewhere in the tables which follow as "Ref.".

[6] = dose 200 mg./kg. p.o. 2×/day × 4

CCOC(=O)c1cnn2c3ccccc3c(=O)n(C)c12 [Example 2, ethyl 4-methyl-4,5-dihydro-5-oxopyrazolo[1,5-a]quinazoline-3-carboxylate]
No. Cleared/No. Tested, Tryp. ([1]; dose 50 mg./kg. p.o., i.p.): 0/5 | No. Cleared/No. Tested, Tryp. ([1]; dose 200 mg./kg. p.o., i.p.): 2/5

CCOC(=O)c1cnn2c3ccc(C)cc3c(=O)n(C)c12 [Example 2F]
inhibition in vivo at 100 mg/kg [2]: 6% | % Inhibition (passive cutaneous anaphylaxis) [2]: Inac. | No. Cleared/No. Tested, Amoeba ([3]; dose 25 mg./kg.): 0/5 | No. Cleared/No. Tested, Amoeba ([3]; dose 100 mg./kg.): 5/5

CCOC(=O)c1cnn2c3ccc(Cl)cc3c(=O)n(C)c12 [Example 2H]
inhibition in vivo at 100 mg/kg [2]: 32% | No. Cleared/No. Tested, Amoeba ([3]; dose 100 mg./kg.): 2/4

CCOC(=O)c1cnn2c3ccc([N+](=O)[O-])cc3c(=O)n(C)c12 [Example 4, ethyl 4-methyl-7-nitro-4,5-dihydro-5-oxopyrazolo[1,5-a]quinazoline-3-carboxylate]
No. Cleared/No. Tested, Amoeba ([3]; dose 100 mg./kg.): 2/4

Cn1c(=O)c2ccccc2n2ncc(C(=O)O)c12 [Example 7, 4-methyl-4,5-dihydro-5-oxopyrazolo[1,5-a]quinazoline-3-carboxylic acid]
inhibition in vivo at 100 mg/kg [2]: 68% | No. Cleared/No. Tested, Tryp. ([1]; dose 100 mg./kg. p.o. 2×/day × 4): 0/5 | No. Cleared/No. Tested, Tryp. [1, 6]: 5/5 | inhibition in vivo at 80 µmol/kg [4]: 16% | inhibition in vivo at 324 µmol/kg [4]: 39% | inhibition in vivo at 324 µmol/kg [5]: 11%

Cc1ccc2c(c1)c(=O)n(C)c1c(C(=O)O)cnn21 [Example 7H]
ED50 [2]: 34 mg/kg | inhibition in vivo at 100 mg/kg [2]: 73% | No. Cleared/No. Tested, Tryp. [1, 6]: 10/10 | No. Cleared/No. Tested, Tryp. ([1]; dose 200 mg./kg. p.o., i.p.): 4/5

Cn1c(=O)c2cc(Cl)ccc2n2ncc(C(=O)O)c12 [Example 7K]
ED50 [2]: 9 mg/kg | No. Cleared/No. Tested, Tryp. ([1]; dose 200 mg./kg. p.o., i.p.): 2/4

O=C(O)c1cnn2c1[nH]c(=O)c1ccc(Cl)cc12 [Example 7L]
inhibition in vivo at 100 mg/kg [2]: 74% | No. Cleared/No. Tested, Amoeba ([3]; dose 100 mg./kg.): 2/5

Cn1c(=O)c2ccc(Cl)cc2n2ncc(C(=O)O)c12 [Example 7M]
inhibition in vivo at 100 mg/kg [2]: 56% | No. Cleared/No. Tested, Tryp. ([1]; dose 200 mg./kg. p.o., i.p.): 5/5

Cn1c(=O)c2cc(F)ccc2n2ncc(C(=O)O)c12 [Example 7P]
% Inhibition (passive cutaneous anaphylaxis) [2]: Inac. | No. Cleared/No. Tested, Tryp. ([1]; dose 200 mg./kg. p.o., i.p.): 3/5 | Amoeba (activity in words) ([3]; dose not given): Inac. (inactive when zero or one of the five hamsters were trophozoite free) | inhibition in vivo at 324 µmol/kg [5]: 0%

Cn1c(=O)c2cc(NC(=S)Nc3ccccc3)ccc2n2ncc(C(=O)O)c12 [Example 7T]
Tryp. (activity in words) ([1]; dose not given): Inac. (inactive if none of the animals survived to the end of the test) | No. Cleared/No. Tested, Amoeba ([3]; dose 50 mg./kg.): 0/3 | No. Cleared/No. Tested, Amoeba ([3]; dose 100 mg./kg.): 3/3

Cn1c(=O)c2cc(N)ccc2n2ncc(C(=O)O)c12 [Example 10, 7-amino-4-methyl-4,5-dihydro-5-oxopyrazolo[1,5-a]quinazoline-3-carboxylic acid]
No. Cleared/No. Tested, Amoeba ([3]; dose 50 mg./kg.): 0/5 | No. Cleared/No. Tested, Amoeba ([3]; dose 100 mg./kg.): 5/5

O=C(O)c1cnn2c1[nH]c(=O)c1ccccc12 [Ref., 4,5-dihydro-5-oxopyrazolo[1,5-a]quinazoline-3-carboxylic acid]
ED50 [2]: 2 to 15 mg/kg | inhibition in vivo at 100 mg/kg [2]: 62% | anti-allergic activity (in words) ([2]; rat, in vivo): possesses anti-allergic activity | inhibition in vivo at 20 µmol/kg ([4]; dose .02 mmole/kg.): 26% | inhibition in vivo at 80 µmol/kg [4]: 31% | inhibition in vivo at 324 µmol/kg [4]: 10% | inhibition in vivo at 80 µmol/kg ([5]; dose .08 mmole/kg.): 0% | inhibition in vivo at 324 µmol/kg [5]: 7%
